Reference: patent US9902703B2, “Somatostatin modulators and uses thereof” (Crinetics Pharmaceuticals, Inc., priority 2015, dated 2018)

Each molecule was assayed against T1, human somatostatin receptor subtype 2 (Homo sapiens, UniProt P30874) (assay: cAMP assay (functional assay for SSTR2 agonists)). Conditions: CHO cells expressing human SSTR2; intracellular cAMP with forskolin, HTRF; read-out: SSTR2a EC50.
T1 construct: expressed in transfected cells; host or cells: CHO (Chinese hamster ovary) cells, G-418 selected
T1 sequence (P30874 whole entry): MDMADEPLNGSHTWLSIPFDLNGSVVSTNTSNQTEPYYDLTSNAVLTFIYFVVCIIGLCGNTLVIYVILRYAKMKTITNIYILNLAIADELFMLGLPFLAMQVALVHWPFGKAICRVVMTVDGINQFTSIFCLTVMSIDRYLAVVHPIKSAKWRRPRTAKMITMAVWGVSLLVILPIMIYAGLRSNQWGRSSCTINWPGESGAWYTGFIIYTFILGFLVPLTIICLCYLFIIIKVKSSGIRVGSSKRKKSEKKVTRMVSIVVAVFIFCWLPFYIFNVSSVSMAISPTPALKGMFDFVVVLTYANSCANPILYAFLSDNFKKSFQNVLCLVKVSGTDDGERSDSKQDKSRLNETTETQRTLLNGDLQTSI
Type: cell-based
Excerpt: Functional Assay for SSTR2 Agonists
General overview: All five SSTR subtypes are Gi coupled G-protein coupled receptors (GPCRs) that lead to decreases in intracellular cyclic AMP (cAMP) when activated by an agonist. Therefore, measurement of intracellular cAMP levels can be used to assess whether compounds of the invention are agonists of SSTR subtypes (John Kelly, Troy Stevens, W. Joseph Thompson, and Roland Seifert, Current Protocols in Pharmacology, 2005, 2.2.1-2.2). One example of an intracellular cAMP assay is described below.
One day prior to the assay, 40,000 Chinese hamster ovary (CHO) cells expressing the human somatostatin receptor subtype 2 are plated in each well of a 96-well tissue culture plate in DM-MEM growth media (Gibco) with the following additives: 10% fetal bovine serum (Gibco), 100 U/mL penicillin (Gibco), 100 ug/mL streptomycin (Gibco), 10 mM HEPES (Gibco), 1.2 mM sodium hydroxide, 0.5 mg/mL G-418 (Gibco)). The cells are cultured overnight at 37° C., 5% CO2 and 95% humidity. On the day of the assay, the media is aspirated and the cells are washed with 1× Dulbecco's phosphate buffered saline (Gibco). Next, 5 μL of assay buffer (1× Earle's Balanced Salt Solution (Gibco), 5 mM MgCl2, 10 mM HEPES, 0.1% bovine serum albumin, 0.2 mM 3-Isobutyl-1-methylxanthine (IBMX, Biomol Research Labs)) and forskolin is added. Various dilutions of the compounds of the invention are prepared in assay buffer and 5 μL of the dilutions are added to the cultured cells and incubated for 15 minutes at 37° C. […] 10 μL of lysis buffer (HRTF cAMP kit, Cisbio) containing cAMP detection and visualization antibodies are added and the assay is allowed incubate for 1-24 hours at room temperature. The intracellular cAMP concentrations are then measured using a commercially available detection kit (for example, the cAMP HTRF kit, Cisbio). The measured intracellular cAMP concentrations are plotted vs. the concentration of the compounds of the invention and the EC50 of the compounds are calculated using standard methods.

Structure (SMILES)	EC50 [nM]
Cc1cc(C)cc(N2C=Nc3ccc(-c4cccc(O)c4)cc3C2C(=O)N(C)C[C@H](C)N)c1 (stereo partly drawn) [Compound 1-1, N-[(2S)-2-aminopropyl]-3-(3,5-dimethylphenyl)-6-(3-hydroxyphenyl)-N-methyl-3,4-dihydroquinazoline-4-carboxamide]	100 to 1000
Cc1cc(C)cc(N2C=Nc3ccc(-c4cccc(O)c4)cc3C2C(=O)N(C)CCN)c1 (centres unmarked) [Compound 1-2, N-(2-aminoethyl)-3-(3,5-dimethylphenyl)-6-(3-hydroxyphenyl)-N-methyl-3,4-dihydroquinazoline-4-carboxamide]	100 to 1000
Cc1cc(C)cc(N2C=Nc3cc(Cl)c(-c4cccc(O)c4)cc3C2C(=O)NCCN)c1 (centres unmarked) [Compound 1-3, N-(2-aminoethyl)-7-chloro-3-(3,5-dimethylphenyl)-6-(3-hydroxyphenyl)-3,4-dihydroquinazoline-4-carboxamide]	1000 to 10000
CC[C@H](N)CN(C)C(=O)C1c2cc(-c3cc(O)c(F)cc3F)c(C)cc2N=CN1c1cc(C)cc(C)c1 (stereo partly drawn) [Compound 1-14, N-[(2S)-2-aminobutyl]-6-(2,4-difluoro-5-hydroxyphenyl)-3-(3,5-dimethylphenyl)-N,7-dimethyl-3,4-dihydroquinazoline-4-carboxamide]	100 to 1000
Cc1cc(Cl)cc(N2C=Nc3cc(C)c(-c4cccc(O)c4)cc3C2C(=O)N(C)C[C@@H]2CCCN2)c1 (stereo partly drawn) [Compound 1-17, 3-(3-chloro-5-methylphenyl)-6-(3-hydroxyphenyl)-N,7-dimethyl-N-[(2S)-pyrrolidin-2-ylmethyl]-3,4-dihydroquinazoline-4-carboxamide]	< 100
Cc1cc(Cl)cc(N2C=Nc3cc(C)c(-c4cccc(O)c4)cc3C2C(=O)N(C)C[C@H]2CCCN2)c1 (stereo partly drawn) [Compound 1-18, 3-(3-chloro-5-methylphenyl)-6-(3-hydroxyphenyl)-N,7-dimethyl-N-[(2R)-pyrrolidin-2-ylmethyl]-3,4-dihydroquinazoline-4-carboxamide]	< 100
Cc1cc(Cl)cc(N2C=Nc3cc(C)c(-c4cc(O)ccc4F)cc3C2C(=O)N(C)C[C@@H]2CCCN2)c1 (stereo partly drawn) [Compound 1-19, 3-(3-chloro-5-methylphenyl)-6-(2-fluoro-5-hydroxyphenyl)-N,7-dimethyl-N-[(2S)-pyrrolidin-2-ylmethyl]-3,4-dihydroquinazoline-4-carboxamide]	< 100
Cc1cc(Cl)cc(N2C=Nc3cc(C)c(-c4cc(O)ccc4Cl)cc3C2C(=O)N(C)C[C@@H]2CCCN2)c1 (stereo partly drawn) [Compound 1-20, 6-(2-chloro-5-hydroxyphenyl)-3-(3-chloro-5-methylphenyl)-N,7-dimethyl-N-[(2S)-pyrrolidin-2-ylmethyl]-3,4-dihydroquinazoline-4-carboxamide]	< 100
Cc1cc(Cl)cc(N2C=Nc3cc(C)c(-c4cc(O)ccc4C#N)cc3C2C(=O)N(C)C[C@@H]2CCCN2)c1 (stereo partly drawn) [Compound 1-21, 3-(3-chloro-5-methylphenyl)-6-(2-cyano-5-hydroxyphenyl)-N,7-dimethyl-N-[(2S)-pyrrolidin-2-ylmethyl]-3,4-dihydroquinazoline-4-carboxamide]	< 100
COc1cc(F)cc(N2C=Nc3cc(C)c(-c4cc(O)ccc4F)cc3C2C(=O)N(C)C[C@@H]2CCCN2)c1 (stereo partly drawn) [Compound 1-22, 6-(2-fluoro-5-hydroxyphenyl)-3-(3-fluoro-5-methoxyphenyl)-N,7-dimethyl-N-[(2S)-pyrrolidin-2-ylmethyl]-3,4-dihydroquinazoline-4-carboxamide]	< 100
Cc1cc(Cl)cc(N2C=Nc3cc(C)c(-c4cc(O)ccc4Cl)cc3C2C(=O)N(C)C[C@@H]2CCCCN2)c1 (stereo partly drawn) [Compound 1-23, 6-(2-chloro-5-hydroxyphenyl)-3-(3-chloro-5-methylphenyl)-N,7-dimethyl-N-[(2S)-piperidin-2-ylmethyl]-3,4-dihydroquinazoline-4-carboxamide]	< 100
Cc1cc(Cl)cc(N2C=Nc3cc(C)c(-c4cccc(C(N)=O)c4)cc3C2C(=O)N(C)C[C@@H]2CCCCN2)c1 (stereo partly drawn) [Compound 1-24, 6-(3-carbamoylphenyl)-3-(3-chloro-5-methylphenyl)-N,7-dimethyl-N-[(2S)-piperidin-2-ylmethyl]-3,4-dihydroquinazoline-4-carboxamide]	< 100

Second part, the molecule after the results:

EC50 [nM]	Structure (SMILES)
< 100	Cc1cc(Cl)cc(N2C=Nc3cc(C)c(-c4cc(F)cc(C(N)=O)c4)cc3C2C(=O)N(C)C[C@@H]2CCCN2)c1 (single isomer, unassigned) [Compound 3-1]
< 100	Cc1cc(Cl)cc(N2C=Nc3cc(C)c(-c4cc(F)ccc4O)cc3C2C(=O)N(C)C[C@@H]2CCCN2)c1 (single isomer, unassigned) [Compound 3-2]
< 100	Cc1cc(C)cc(N2C=Nc3cc(Cl)c(-c4cccc(O)c4)cc3C2C(=O)N(C)C[C@H](C)N)c1 (stereo partly drawn) [Compound 1-4, N-[(2S)-2-aminopropyl]-7-chloro-3-(3,5-dimethylphenyl)-6-(3-hydroxyphenyl)-N-methyl-3,4-dihydroquinazoline-4-carboxamide]
< 100	CC[C@H](N)CN(C)C(=O)C1c2cc(-c3cccc(O)c3)c(Cl)cc2N=CN1c1cc(C)cc(C)c1 (stereo partly drawn) [Compound 1-5, N-[(2S)-2-aminobutyl]-7-chloro-3-(3,5-dimethylphenyl)-6-(3-hydroxyphenyl)-N-methyl-3,4-dihydroquinazoline-4-carboxamide]
< 100	CC[C@H](N)CN(C)C(=O)C1c2cc(-c3cc(O)cc(F)c3)c(Cl)cc2N=CN1c1cc(C)cc(C)c1 (stereo partly drawn) [Compound 1-6, N-[(2S)-2-aminobutyl]-7-chloro-3-(3,5-dimethylphenyl)-6-(3-fluoro-5-hydroxyphenyl)-N-methyl-3,4-dihydroquinazoline-4-carboxamide]
< 100	CC[C@H](N)CN(C)C(=O)C1c2cc(-c3cc(C)cc(O)c3)c(Cl)cc2N=CN1c1cc(C)cc(C)c1 (stereo partly drawn) [Compound 1-7, N-[(2S)-2-aminobutyl]-7-chloro-3-(3,5-dimethylphenyl)-6-(3-hydroxy-5-methylphenyl)-N-methyl-3,4-dihydroquinazoline-4-carboxamide]
< 100	CC[C@H](N)CN(C)C(=O)C1c2cc(-c3cc(O)ccc3C)c(Cl)cc2N=CN1c1cc(C)cc(C)c1 (stereo partly drawn) [Compound 1-8, N-[(2S)-2-aminobutyl]-7-chloro-3-(3,5-dimethylphenyl)-6-(5-hydroxy-2-methylphenyl)-N-methyl-3,4-dihydroquinazoline-4-carboxamide]
< 100	CC[C@H](N)CN(C)C(=O)C1c2cc(-c3cccc(O)c3)c(C)cc2N=CN1c1cc(C)cc(C)c1 (stereo partly drawn) [Compound 1-9, N-[(2S)-2-aminobutyl]-3-(3,5-dimethylphenyl)-6-(3-hydroxyphenyl)-N,7-dimethyl-3,4-dihydroquinazoline-4-carboxamide]
< 100	CC[C@H](N)CN(C)C(=O)C1c2cc(-c3cc(O)ccc3F)c(C)cc2N=CN1c1cc(C)cc(C)c1 (stereo partly drawn) [Compound 1-10, N-[(2S)-2-aminobutyl]-3-(3,5-dimethylphenyl)-6-(2-fluoro-5-hydroxyphenyl)-N,7-dimethyl-3,4-dihydroquinazoline-4-carboxamide]
< 100	CC[C@H](N)CN(C)C(=O)C1c2cc(-c3cccc(O)c3F)c(C)cc2N=CN1c1cc(C)cc(C)c1 (stereo partly drawn) [Compound 1-11, N-[(2S)-2-aminobutyl]-3-(3,5-dimethylphenyl)-6-(2-fluoro-3-hydroxyphenyl)-N,7-dimethyl-3,4-dihydroquinazoline-4-carboxamide]
< 100	Cc1cc(C)cc(N2C=Nc3cc(C)c(-c4cccc(O)c4)cc3C2C(=O)N(C)C[C@@H]2CCCN2)c1 (stereo partly drawn) [Compound 1-12, 3-(3,5-dimethylphenyl)-6-(3-hydroxyphenyl)-N,7-dimethyl-N-[(2S)-pyrrolidin-2-ylmethyl]-3,4-dihydroquinazoline-4-carboxamide]
< 100	CC[C@H](N)CN(C)C(=O)C1c2cc(-c3cccc(O)c3)c(C)cc2N=CN1c1cc(C)cc(Cl)c1 (stereo partly drawn) [Compound 1-13, N-[(2S)-2-aminobutyl]-3-(3-chloro-5-methylphenyl)-6-(3-hydroxyphenyl)-N,7-dimethyl-3,4-dihydroquinazoline-4-carboxamide]
< 100	CC[C@H](N)CN(C)C(=O)C1c2cc(-c3c(F)ccc(O)c3F)c(C)cc2N=CN1c1cc(C)cc(C)c1 (stereo partly drawn) [Compound 1-15, N-[(2S)-2-aminobutyl]-6-(2,6-difluoro-3-hydroxyphenyl)-3-(3,5-dimethylphenyl)-N,7-dimethyl-3,4-dihydroquinazoline-4-carboxamide]
< 100	CC[C@H](N)CN(C)C(=O)C1c2cc(-c3cc(O)ccc3Cl)c(C)cc2N=CN1c1cc(C)cc(C)c1 (stereo partly drawn) [Compound 1-16, N-[(2S)-2-aminobutyl]-6-(2-chloro-5-hydroxyphenyl)-3-(3,5-dimethylphenyl)-N,7-dimethyl-3,4-dihydroquinazoline-4-carboxamide]
